{
  "source": "patent US7211566B2",
  "about": "(Universite De Sherbrooke, priority 2003, dated 2007)",
  "key": {"[1]": {"target": "T1, angiotensin converting enzyme (ACE) (Oryctolagus cuniculus, UniProt P12822)", "T1 construct": "In Vitro Biochemical Stability Assays Against Purified Native Enzymes; purchased Sigma, St. Louis, Mo; host or cells: rabbit lung", "T1 sequence (P12822 34-1310)": "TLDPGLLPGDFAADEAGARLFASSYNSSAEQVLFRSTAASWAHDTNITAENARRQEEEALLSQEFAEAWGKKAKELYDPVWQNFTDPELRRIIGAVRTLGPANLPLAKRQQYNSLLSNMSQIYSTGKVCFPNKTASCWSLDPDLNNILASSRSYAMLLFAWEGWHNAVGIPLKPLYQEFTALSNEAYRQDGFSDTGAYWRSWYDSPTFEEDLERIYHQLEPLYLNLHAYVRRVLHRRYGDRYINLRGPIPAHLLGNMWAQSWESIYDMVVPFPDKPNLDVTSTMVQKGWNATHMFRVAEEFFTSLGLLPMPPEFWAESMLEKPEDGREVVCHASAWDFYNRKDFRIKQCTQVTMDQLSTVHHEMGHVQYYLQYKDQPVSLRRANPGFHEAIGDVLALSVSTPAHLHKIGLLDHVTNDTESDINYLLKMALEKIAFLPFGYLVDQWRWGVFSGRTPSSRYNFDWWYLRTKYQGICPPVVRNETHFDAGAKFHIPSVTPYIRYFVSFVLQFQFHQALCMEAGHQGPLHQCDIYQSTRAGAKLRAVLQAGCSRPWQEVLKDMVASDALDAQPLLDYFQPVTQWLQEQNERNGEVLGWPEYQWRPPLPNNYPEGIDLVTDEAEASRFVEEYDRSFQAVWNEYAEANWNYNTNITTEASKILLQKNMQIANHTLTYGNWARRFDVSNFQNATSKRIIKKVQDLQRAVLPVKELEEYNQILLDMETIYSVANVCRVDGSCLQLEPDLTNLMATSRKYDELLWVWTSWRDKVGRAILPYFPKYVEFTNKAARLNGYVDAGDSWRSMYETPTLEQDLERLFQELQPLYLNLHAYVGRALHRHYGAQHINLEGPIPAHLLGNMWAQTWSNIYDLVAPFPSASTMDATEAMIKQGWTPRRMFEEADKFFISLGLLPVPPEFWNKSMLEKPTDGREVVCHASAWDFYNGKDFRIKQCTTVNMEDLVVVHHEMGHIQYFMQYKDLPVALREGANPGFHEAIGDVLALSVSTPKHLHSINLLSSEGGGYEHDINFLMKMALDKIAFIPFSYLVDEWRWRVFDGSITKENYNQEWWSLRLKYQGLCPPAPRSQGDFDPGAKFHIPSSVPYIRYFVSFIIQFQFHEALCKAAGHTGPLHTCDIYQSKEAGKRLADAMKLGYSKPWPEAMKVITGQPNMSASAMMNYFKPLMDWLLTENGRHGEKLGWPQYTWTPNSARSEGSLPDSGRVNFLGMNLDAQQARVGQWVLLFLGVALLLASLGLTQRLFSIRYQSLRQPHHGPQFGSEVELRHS", "assay": "In vitro metabolic stability against purified rabbit lung ACE", "assay_type": "in vitro ADME", "settings": "purified angiotensin converting enzyme from rabbit lung, pH 7.5, peptide 200 μM, 60 min at 37° C., mean ± SEM of 3, read-out: Peptide metabolism (%) Rabbit lung ACE", "procedure": "These assays were performed using three enzyme preparations: purified angiotensin converting enzyme (ACE; from rabbit lung), human plasma as a, source of aminopeptidase M (AmM) and human platelets as a source of aminopeptidase P (AmP).\nPurified ACE from rabbit lungs (Sigma, St. Louis, Mo.) was dissolved in PBS (50 mM, pH 7.5, containing 300 mM NaCl and 10 μM ZnCl2; the final concentration of ACE was 45 μg/ml). Each of the peptide antagonists (200 μM) was incubated for 60 min at 37° C. with ACE (8.5 μl) (total volume medium, 187.5 μl). The enzymatic reaction was then terminated by boiling.\nThe experimental protocol for the measurement of ACE activity has been described elsewhere (Drapeau et a). 1993, J Pharmacol Exp Ther 266, 192–198; Gobeil et al., 1996, supra)."}, "[2]": {"target": "T2, BKB1 receptor (Homo sapiens, UniProt P46663)", "T2 sequence (P46663 1-353)": "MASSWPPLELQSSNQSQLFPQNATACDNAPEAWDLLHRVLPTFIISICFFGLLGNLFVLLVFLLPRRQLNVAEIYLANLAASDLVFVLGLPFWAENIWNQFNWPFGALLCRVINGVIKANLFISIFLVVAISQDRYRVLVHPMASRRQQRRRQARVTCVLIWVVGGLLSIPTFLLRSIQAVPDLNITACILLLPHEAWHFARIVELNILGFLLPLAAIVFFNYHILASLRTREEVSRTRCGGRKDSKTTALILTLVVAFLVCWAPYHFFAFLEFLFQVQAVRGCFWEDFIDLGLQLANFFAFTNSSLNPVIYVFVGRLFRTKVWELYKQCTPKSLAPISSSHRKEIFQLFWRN", "assay": "Isolated human umbilical vein (hUV) organ bath, antagonist potency pA2", "assay_type": "cell-based", "design": "the hUV that contains BKB1 and BKB2 receptors; from tissue; host or cells: isolated human umbilical vein (hUV)", "settings": "human umbilical vein treated with HOE 140; mean ± SEM of 4–7 experiments; read-out: Antagonist potencies (pA2) BKB1-R hUV (converted)", "procedure": "Selected antagonists were tested for activities in three isolated organs: (1) the rabbit aorta (rbA), (2) the human umbilical vein (hUV) and (3) the rabbit jugular vein (rbJV).\nAll details regarding the procurements of human umbilical cords and rabbit vessels as well as, the procedures for preparing the isolated organs and the experimental protocols are described in these respective publications: rbA (Rioux et al. 1973, Can J Physiol Pharmacol 51, 114–121); hUV (Gobeil et al. 1996, Br J Pharmacol 118, 289–294), and rbJV (Gaudreau et al. 1981, Can J Physiol Pharmacol 59, 371–379).\nThe rabbit jugular vein (a pure BKB2 receptor system) was used to exclude any action of the new compounds on the BKB2 receptor and thus establish their selectivity. All tissues were treated with captopril (1 μM) to prevent the degradation of the peptidic agonists.\nRepeated applications of a single and double concentration of BK (on rbJV,) or of desArg^9BK (rbA and hUV) were made in the absence and in presence of the various peptides to evaluate their apparent affinities as antagonists, in terms of pA2 (-log10 of the molar concentration of antagonist that reduces the effect of a double concentration of agonist to that of a single one) (Schild 1947, Br J Pharmacol 2, 189–206)."}},
  "note": "Square brackets hold non-standard residues; d marks the D form. Peptide text beside a SMILES is read from it. Oic = O=C(O)[C@@H]1C[C@@H]2CCCC[C@@H]2N1; d2Nal = N[C@H](Cc1ccc2ccccc2c1)C(=O)O; αMeF = C[C@](N)(Cc1ccccc1)C(=O)O; Orn = NCCC[C@H](N)C(=O)O",
  "data": [
    {"smiles": "CC[C@H](C)[C@H](NC(=O)[C@@H](Cc1ccc2ccccc2c1)NC(=O)[C@H](CO)NC(=O)[C@](C)(Cc1ccccc1)NC(=O)CNC(=O)[C@@H]1CCCN1C(=O)[C@@H]1C[C@@H]2CCCC[C@@H]2N1C(=O)[C@H](CCCNC(=N)N)NC(=O)[C@H](CCCN)NC(C)=O)C(=O)O", "note": "[compound c, Ac-Orn[Oic^2,(α-Me)Phe^5,D-βNal^7,Ile^8]desArg^9BK] (Ac-[Orn]R[Oic]PG[αMeF]S[d2Nal]I-OH)", "values": [
      {"measurement": "metabolised at 1 h, 200 µM", "setting": "[1]", "result": 0, "unit": "%"},
      {"measurement": "Kb", "setting": "[2]", "result": 3.47, "unit": "nM"}
    ]},
    {"smiles": "CC[C@H](C)[C@H](NC(=O)[C@@H](Cc1ccc2ccccc2c1)NC(=O)[C@H](CO)NC(=O)[C@](C)(Cc1ccccc1)NC(=O)CNC(=O)[C@@H]1CCCN1C(=O)[C@@H]1C[C@@H]2CCCC[C@@H]2N1C(=O)[C@H](CCCNC(=N)N)NC(=O)[C@H](CCCCN)NC(C)=O)C(=O)O", "note": "[Ac-Lys[Oic^2,(α-Me)Phe^5,D-βNal^7,Ile^8]desArg^9BK] (Ac-KR[Oic]PG[αMeF]S[d2Nal]I-OH)", "values": [
      {"measurement": "metabolised at 1 h, 200 µM", "setting": "[1]", "result": 0, "unit": "%"},
      {"measurement": "Kb", "setting": "[2]", "result": 3.72, "unit": "nM"}
    ]}
  ]
}
